Among the data in ChEMBL document CHEMBL1132845, “Synthesis and potent anticonvulsant activities of 4-oxo-imidazo[1,2-a]inden” (Bioorg Med Chem Lett, 2000) are ED50 and IC50 values, retold here.

Some results are limits rather than exact numbers.

A word on the ED50: it is the dose that gives a 50% effect, or the effect in half of the subjects. A high value points to a need for a large dose. Broadly, the IC50 is the concentration at which inhibition is half-maximal. The low end stands for greater potency in that assay, the high end for weaker potency in that assay.

Test [1] is filed under the species Mus musculus. Put plainly: Compound was tested for the maximal electroshock effect in mice. It counts as functional. In general terms: In the maximal electroshock model the usual endpoint is tonic extension of the hind limbs.
The species entered for test [2] is Mus musculus. Put plainly: Anticonvulsant activity in male CD1 mice. It counts as functional.
Test [3] has as its system Mus musculus. The test can be described thus: Effective dose in MES test in mouse after i.v. administration. Format: functional. Particulars: iv.
Test [4] deals with Mus musculus. Put plainly: Effective dose in MES test in mouse after s.c. administration. Format: functional. Particulars: sc.
For test [5], the system named is Mus musculus. The test can be described thus: Effective dose in mouse after i.p. administration. It counts as functional. The note with it: ip.
Test [6] deals with Mus musculus. The test can be described thus: Anticonvulsant activity against glutamic acid receptor complex after subcutaneous administration in CD1 mouse. It counts as functional. The note with it: sc.
The target in the next test is Glutamate NMDA receptor. The test can be described thus: Binding affinity for N-methyl-D-aspartate glutamate receptor. It counts as protein-complex assay, Rattus norvegicus.
For test [7], the system named is Rattus norvegicus. The test can be described thus: Effective dose in MES test in SD rat after s.c. administration. The note with it: sc. Format: functional.
Test [8] deals with Rattus norvegicus. Put plainly: Effective dose in MES test in SD rat after i.v. administration. It counts as functional. The note with it: iv.
The target of test [9] is T1, Glutamate receptor ionotropic, AMPA (Rattus norvegicus, UniProt P19490+P19491+P19492+P19493). Put plainly: Binding affinity against Ionotropic glutamate receptor AMPA in rat brain.
The target in test [10] is T1, Glutamate receptor ionotropic, AMPA.
Description: Binding affinity for Ionotropic glutamate receptor AMPA
Test [11] shares this target. The source holds these as a separate data set.
Description: Antagonistic activity against Ionotropic glutamate receptor AMPA using kainate-evoked current in Xenopus oocytes injected with rat brain mRNA
In test [12] the test system is Mus musculus. Put plainly: Effective dose in MES test in mouse after i.p. administration. Particulars: ip.
Test [13] deals with Rattus norvegicus. Put plainly: Effective dose in MES test in SD rat after i.p. administration. Particulars: ip.
In test [14] the test system is Mus musculus. The test can be described thus: Anticonvulsant activity after subcutaneous administration in CD1 mouse.
For test [15], the system named is Mus musculus. Put plainly: Anticonvulsant activity against GABA receptor complex after intra peritoneal administration in CD1 mouse.

`O=C(O)Cc1cccc2c1Cc1c-2nc(O)c2nc(C(=O)O)cn12`: the ED50 was not above 2 mg/kg in the test listed under Mus musculus [1]; 1.2 mg/kg in the test filed under Mus musculus [2]; 0.5 mg/kg with Mus musculus [3]; 1 mg/kg in the test with Mus musculus [4]; 0.8 mg/kg in the test on Mus musculus [5]; 1.5 mg/kg in the test on Mus musculus [6]. In addition, the ED50 with Rattus norvegicus [7] is 1 mg/kg; in the test on Rattus norvegicus [8], 0.4 mg/kg; with Mus musculus [12], 1.2 mg/kg; in the test with Rattus norvegicus [13] it was 4.8 mg/kg; with Mus musculus [14] it was approximately 16 mg/kg; in the test on Mus musculus [15], 1.7 mg/kg. Moreover, the IC50 at Glutamate NMDA receptor came out at 7200 nM; in [9], 4 nM; in test [10] it was 18 nM; in [11], 5 nM.

Regarding `O=C(O)c1cn2c3c(nc(O)c2n1)-c1ccccc1C3`, the ED50 in the test filed under Mus musculus [2] came out at 50 mg/kg. In addition, the IC50 came out at 83 nM on Glutamate NMDA receptor and 29 nM in test [11].

`Oc1nc2c(n3ccnc13)Cc1ccccc1-2`: in the test filed under Mus musculus [2], the ED50 was determined as 62 mg/kg. The same compound returned an IC50 in test [11] of 1800 nM.

`O=C(O)Cc1ccc2c(c1)Cc1c-2nc(O)c2nc(C(=O)O)cn12` had an ED50 in the test listed under Mus musculus [2] of 16 mg/kg. The IC50 was more than 10000 nM on Glutamate NMDA receptor, 611 nM in test [10] and 214 nM in test [11].

As to `O=C(O)c1cccc2c1Cc1c-2nc(O)c2nccn12`, the IC50 on Glutamate NMDA receptor is 21000 nM; in test [10], 3500 nM; in test [11], 3250 nM.

As for `CC(C(=O)O)c1cccc2c1Cc1c-2nc(O)c2nc(C(=O)O)cn12` (configuration not stated), the ED50 in the test filed under Mus musculus [2] was 19 mg/kg. The results for the IC50 (at Glutamate NMDA receptor; in test [10]; in test [11]) were 4100 nM, 450 nM and 53 nM, respectively.

For `O=C(O)Cc1cn2c3c(nc(O)c2n1)-c1cccc(CC(=O)O)c1C3`, in the test filed under Mus musculus [2], the ED50 worked out at 2 mg/kg. Moreover, the IC50 came to 2100 nM at Glutamate NMDA receptor, 4 nM in test [10] and 23 nM in test [11].

With `O=C(O)Cc1ccc2c(c1)Cc1c-2nc(O)c2nccn12`, the IC50 is more than 10000 nM on Glutamate NMDA receptor, 10000 nM in test [10] and 2640 nM in test [11].

In turn, `O=C(O)Cc1cccc2c1Cc1c-2nc(O)c2nccn12` gave an ED50 in the test filed under Mus musculus [2] of more than 80 mg/kg. Also, the IC50 on Glutamate NMDA receptor is more than 10000 nM; in test [10], 89 nM; in test [11] it was 104 nM.

As for `O=C(O)c1ccc2c(c1)Cc1c-2nc(O)c2nccn12`, in the test listed under Mus musculus [2], the ED50 was more than 80 mg/kg. The IC50 at Glutamate NMDA receptor worked out at 10000 nM; in test [10], 620 nM; in test [11], 2010 nM.

With `NS(=O)(=O)c1cccc2c1c([N+](=O)[O-])cc1nc(O)c(O)nc12` [NBQX], in the test listed under Mus musculus [2], the ED50 turned out to be 36 mg/kg.

As to `O=C(O)[C@@H]1C[C@H]2C[C@@H](CCc3nn[nH]n3)CC[C@H]2CN1` [TEZAMPANEL ANHYDROUS], the ED50 in the test filed under Mus musculus [2] came out at 4 mg/kg. This compound registered an IC50 in test [11] of 230 nM.

In the test listed under Mus musculus [2], `O=c1[nH]c2cc(-n3ccnc3)c([N+](=O)[O-])cc2[nH]c1=O` [YM-90K] came in with an ED50 of 12 mg/kg. In test [11], this compound displayed an IC50 of 260 nM.
